From publication PMC6274005, “Interaction of Di-2-pyridylketone 2-pyridine Carboxylic Acid Hydrazone and Its Copper Complex with BSA: Effect on Antitumor Activity as Revealed by Spectroscopic Studies” (Molecules, 2016)

What was measured:
BSA [1] = target: T1, BSA (Bos taurus, UniProt P02769); experiment: Fluorescence resonance energy transfer (FRET) between BSA and bound agent; assay type: binding, bovine; details: for r (distance from bound agent to Trp-213 residue of BSA): FRET; for R0 (critical distance at 50% energy transfer efficiency): K^2 = 2/3, N = 1.336, ф = 0.15
T1 sequence (P02769 25-607): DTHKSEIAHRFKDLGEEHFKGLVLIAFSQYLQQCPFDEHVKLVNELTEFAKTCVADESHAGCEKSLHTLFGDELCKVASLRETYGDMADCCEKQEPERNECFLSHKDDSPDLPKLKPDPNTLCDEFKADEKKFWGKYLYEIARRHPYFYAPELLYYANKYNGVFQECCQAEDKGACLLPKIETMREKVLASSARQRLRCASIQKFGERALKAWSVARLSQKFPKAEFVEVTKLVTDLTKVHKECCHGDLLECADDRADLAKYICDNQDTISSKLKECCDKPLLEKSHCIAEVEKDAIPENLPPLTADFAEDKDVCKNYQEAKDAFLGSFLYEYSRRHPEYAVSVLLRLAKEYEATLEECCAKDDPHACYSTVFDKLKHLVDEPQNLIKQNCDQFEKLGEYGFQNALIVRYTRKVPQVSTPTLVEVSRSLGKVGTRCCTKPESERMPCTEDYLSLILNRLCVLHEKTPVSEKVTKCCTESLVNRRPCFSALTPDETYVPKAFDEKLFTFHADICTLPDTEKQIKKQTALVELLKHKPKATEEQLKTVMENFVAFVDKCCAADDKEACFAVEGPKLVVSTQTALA
Experimental: Further, the distance R between the two Trp residues in BSA and the bound DPPCAH (DPPCAH-Cu) was determined using the fluorescence resonance energy transfer (FRET) method. Generally, FRET occurs whenever the emission spectrum of a fluorophore (donor) overlaps with the absorption spectrum of the bound molecule (acceptor). The efficiency of energy transfer could be used to evaluate the distance between the drug and the Trp213 residue in BSA. The relationship between the distance and efficiency of FRET is described by the following equation: (4) E=1−F/F0=R06/R06+r^6 where, r is the distance between acceptor and donor and, R0 is the critical distance when the energy transfer efficiency is 50%. The value of R0 is calculated using the following equation: (5) R=8.8×10^−25 K^2 N^−4ΦJ where, K^2 is the relative orientation of the transition dipoles of donor and acceptor (K^2 = 2/3 for a random orientation); N is the average refractive index of the medium (N = 1.336); ф is the fluorescence quantum yield of donor (ф = 0.15); J is a factor describing the spectral overlap between the emission spectrum of donor and the absorption spectrum of acceptor. J is calculated using the following equation: (6) J=∑F(λ)ε(λ)λ^4Δλ/∑F(λ)Δλ where, λ is wavelength. To calculate the distance (r), E and J value are required. These values are derived from the fluorescence data and overlapped area between the emission spectrum of BSA and the absorption spectrum of DPPCAH (or DPPCAH-Cu) as shown in Figure 6a (or Figure 6b) after normalization. The experimental value for the efficiency to be used in Equation (4) was estimated by measuring the fluorescence at equal protein-ligand concentration as described in [27].
Absorbance spectrum of DPPCAH and DPPCAH-Cu were recorded on a UV-2450 spectrophotometer (Shimadzu (Suzhou) Co. Ltd., Suzhou, China) within the UV region in the range of 300 to 450 nm. Final concentrations of the agents concentration used for measurements were 10 μM (in Tris-HCl buffer, pH 7.2).
For the fluorescence spectra, the excitation wavelength was set at 280 nm and the emission spectra were recorded in the range of 300 to 450 nm. Both excitation and emission slit widths were adjusted to 5 nm. In this assay, 4.0 mL of BSA solution at a fixed concentration of […] was accurately added into the quartz cell (1 cm path length), and was manually titrated by successive additions of 10 mM DPPCAH (or DPPCAH-Cu) at intervals of 5 min. Fluorescence emission spectra were then measured on a RF-5301 Spectrofluorophotometer (Shimadzu Scientific Instruments, Kyoto, Japan) at three different temperatures (288, 303, and 310 K). In order to calculate the peak area, the integration of spectra was done in the range of 300 to 450 nm. Synchronous fluorescence spectra were recorded by simultaneously scanning the excitation and emission monochromators, in which a constant wavelength interval was maintained between them. The wavelength interval (Δλ = λem − λex) was fixed individually at 60 nm, at which characteristic information of pertaining to Trp residues was obtained.

BSA [2] = target: T1, BSA; experiment: Circular dichroism spectra of BSA, secondary structure simulated with K2D2; design: species or system bovine; details: molar ratio drug/protein = 2; CBSA = 15 μM; K2D2 simulation of CD data
Experimental: A direct calculation of secondary structures using experimental data was employed, but owing to the larger errors, the K2D2 software was used to simulate the experimental data of CD in the present study. The simulated curves are represented in the Supplementary Materials (Figure S1). In the absence of DPPCAH, the α-helix and β-sheet of BSA were 52% and 8.29% respectively.
BSA CD spectra in the range of 190–250 nm were recorded on a Chirascan (Applied Photophysics Ltd., Surrey, UK) with a 1.0 cm quartz cell in nitrogen atmosphere. BSA CD measurements in the presence and absence of DPPCAH (or DPPCAH-Cu) were performed with a scan rate of 50 nm/min. The A stock solution of 1.5 × 10^−5 M BSA was prepared in PBS. A 10 mM stock solution of DPPCAH was prepared in DMSO and the stock solution was diluted to 1.5 mM with water for measurements. Similarly, a solution of DPPCAH-Cu was prepared by mixing the DPPCAH solution with higher concentration of CuCl2 in water. The BSA concentration was held constant, while the DPPCAH concentration was varied (0, 1.5, 3.0 × 10^−5 M). The final concentration of DMSO in the measurements was less 0.5%. The buffer solution was chosen as the blank, and was manually subtracted from each spectrum during scanning. Each sample was scanned three times and the average was recorded for the CD spectrum.

HepG2 cells = experiment: MTT cytotoxicity assay in the absence or presence of BSA; assay type: cell-based; details: agent-BSA 1:1, medium without FCS, 8 h incubation
Experimental: It has been reported that HSA could enhance the anti-proliferative activity of Dp44mT [13]. Thus, we examined the effect of BSA on both DPPCAH- and DPPCAH-Cu-mediated inhibition of HepG2 cells in which BSA was the main protein source in the cell culture.
Figure 1 Inhibition of proliferation of HepG2 cells by DPPCAH and DPPCAH-Cu in the absence or presence of BSA. Dpp = DPPCAH; * p < 0.01 (t-test).
A stock solution of DPPCAH (10 mM) was prepared in 80% DMSO, and was diluted to the required concentration with culture medium when used. The DPPCAH-Cu was prepared by mixing highly concentrated copper chloride with DPPCAH based on 1:1 molar ratio, and diluted to the required concentration with water. BSA was dissolved in PBS and was sterilized by filter sterilization method. HepG2 cells were cultured in RPMI-1640 medium supplemented with 10% fetal calf serum (FCS) and antibiotics. The cells collected in the exponential-phase (5 × 10^3 /mL) were seeded equivalently into a 96-well plate, followed by 6 h of incubation. […] The plate was read using a microplate reader (MK3; Thermo Fisher Scientific (Shanghai) Co. LTD, Shanghai, China) at 570 nm and the measurement of absorbance represented an estimate of the number of viable cells. Percent growth inhibition was defined as percent absorbance inhibition within appropriate absorbance in each cell line. […]

| Compound | r (distance from bound agent to Trp-213 residue of BSA) (BSA [1]) | R0 (critical distance at 50% energy transfer efficiency) (BSA [1]) | R0 (critical distance at 50% energy transfer efficiency) (BSA [1]; listed as BSA-DPPCAH-Cu) | J (spectral overlap of BSA emission and agent absorption) (BSA [1]; calculated from spectra) | decrease in α-helix of BSA (BSA [2]) | increase in β-sheet of BSA (BSA [2]) | effect of BSA on growth inhibition of HepG2 cells mediated by the agent (HepG2 cells) |
| --- | --- | --- | --- | --- | --- | --- | --- |
| Copper complex of di-2-pyridylketone 2-pyridinecarboxylic acid hydrazone [DPPCAH-Cu] | 2.32 nm | 2.7 nm | 2.70 nm | 1.7e-14 cm^3·L·mol^-1 | 3.5% | 1.45% | – |
| O=C(NN=C(c1ccccn1)c1ccccn1)c1ccccn1 [DPPCAH, di-2-pyridylketone-2-pyridine carboxylic acid hydrazone] | 2.03 nm | 2.35 nm | – | – | – | – | attenuated the growth inhibition |
